Laboratory results published in US20100292246A1, “FORMULATIONS OF 1-(4-BENZOYL-PIPERAZIN-1-YL)-2-[4-METHOXY-7-(3-METHYL-[1,2,4]TRIAZOL-1-YL)-1H-PYRROLO[2,3-C]PYRIDIN-3-YL]-ETHANE-1,2-DIONE” (Bristol-Myers Squibb Company, priority 2004, published 2010).
≈ marks a conversion by molar mass, not a printed value.

Legend:
[1] = aqueous solubility of crystalline Compound (I); assay type: physicochemical; settings: water (aqueous); crystalline material P-1
Excerpt: Compound (I) exists in several different crystalline forms: P-1, P-2, P-3, and P-4. […] The present invention relates to formulations that effectively deliver Compound (I).

[2] = as disclosed in co-pending application; cited from earlier work

solubility [1] [µg/mL] | SMILES | solubility of Compound (I) in crystalline form [2]
2.7 (≈ 5.7 µM) | COc1cnc(-n2cnc(C)n2)c2[nH]cc(C(=O)C(=O)N3CCN(C(=O)c4ccccc4)CC3)c12 [Sample P-1, 1-(4-benzoyl-piperazin-1-yl)-2-[4-methoxy-7-(3-methyl-[1,2,4]triazol-1-yl)-1H-pyrrolo[2,3-c]pyridin-3-yl]-ethane-1,2-dione] | 
 | COc1cnc(-n2cnc(C)n2)c2[nH]cc(C(=O)C(=O)N3CCN(C(=O)c4ccccc4)CC3)c12 [Compound (I), 1-(4-benzoyl-piperazin-1-yl)-2-[4-methoxy-7-(3-methyl-[1,2,4]triazol-1-yl)-1H-pyrrolo[2,3-c]pyridin-3-yl]-ethane-1,2-dione] | typically low
